Measured values from patent US20240366571A1, “MODULATORS OF SK4 POTASSIUM CHANNEL AND USES THEREOF” (Ramot at Tel-Aviv University Ltd., priority 2022, published 2024).
Entries after “also recorded” stand apart in the source; their conditions may differ. Values belong to the compound of their own block, whether it stands above or below them.

Columns and labels:
[1] = target: T1, WT SK4 channels (Homo sapiens, UniProt O15554); assay: Inside-out macro-patch recording of WT SK4 channels in transfected CHO cells; format: cell-based; conditions: 1 μM free-Ca2+
T1 construct: expressed in transfected cells; host or cells: CHO cells
Method: Inside-out macro-patch recording: To measure the Ca^2+ concentration dependence for SK4 channel activation, CHO cells were co-transfected with plasmids encoding WT SK4 (1 μg) and WT CaM (1 μg) using the Lipofectamine reagent at a ratio of 1:2. The cells were transfected 48 hours prior to recordings. The patch pipettes were pulled and fire-polished with a MF-900 micro-forge (Narashige) to reach an internal diameter of […]. The resistance of the patch electrodes ranged from 2-3 MΩ. The pipette solution contained 135 mM KCl, 1 mM MgSO4, 0.91 mM CaCl2, and 10 mM HEPES at pH 7.3. The bath solution contained 135 mM KCl, 5 mM EGTA, and 10 mM HEPES at pH 7.3. EGTA was used to titer the different Ca^2+ concentration solutions, calculated using the software by C. Patton of Stanford University (http://maxchelator(dot)stanford(dot)edu/). Currents were recorded by 10 repetitive 1 second duration voltage ramps from −100 mV to +100 mV from a holding potential of 0 mV. The current amplitudes in response to increasing Ca^2+ concentrations were normalized to those obtained at a saturating Ca^2+ concentration (3 μM). Furthermore, to determine the Ca^2+ concentration dependence for activation in the presence of a tested compound, such as the exemplary compound BA6b9 (10 μM), the current amplitudes were normalized to those obtained at large maximal Ca^2+ concentration of 10 μM. For PIP2-dependent activation, PIP2 affinity to the SK4 channel was also examined in the inside-out configuration. The dose-response curve for PIP2 was measured with increasing concentrations of diC8-PIP2 in the presence of 1 μM Ca^2+. The diC8-PIP2 effect on the channel current was measured after complete depletion of the native PIP2 using sonicated poly-L-lysine (PLL) 50 μg/ml and a subsequent 2-minute washout. […] Apparent EC50 values for Ca^2+ or diC8-PIP2 were determined by fitting the data points to a standard dose-response curve Y=100/(1+10^(log EC(50)−X)*HillSlope).
The calcium dependence of the human SK4 K^+ channel in transfected CHO cells was characterized using inside-out macro-patches. The expressed currents were recorded in response to voltage ramps (−100 millivolt (mV) to +100 mV for 1 seconds) and by increasing the free-Ca^2+ concentrations applied to the internal face of the membrane. […]
To examine whether PIP2 is involved in the modulation of the SK4 channel, channel trafficking to the plasma membrane was increased by co-transfecting CHO cells with plasmid DNAs encoding for the channel and for wild type (WT) CaM. The resulting currents were recorded from inside-out macro-patches, where the intracellular solution contained a saturating concentration of 1 μM free-Ca^2+, as shown in FIG. 1B (see, black plot).

[2] = target: WT SK2 channels (Rattus norvegicus, UniProt P70604); conditions: Zhang et al., Nat Chem Biol (2014); cited from earlier work
[3] = target: T2, human SK4 (Homo sapiens, UniProt O15554); assay: Whole-cell patch-clamp of WT SK4 K+ currents in transfected CHO cells; format: cell-based; conditions: WT SK4 currents in absence and presence of 20 μM compound
T2 construct: expressed in transfected cells; host or cells: CHO cells
Method: Constructs: For CHO cell transfection, the following were cloned: human SK1, rat SK2, human SK3, and rat calmodulin into the pcDNA3 vector, human SK4 into pEGFP-C1 vector, and PIP4,5-kinase into an IRES-dsRed plasmid. The mutations were introduced using the PCR-based QuikChange™ site-directed mutagenesis (Stratagene®) and were verified by full sequencing of the entire plasmid vector.
Cell Culture and Transfection: Chinese hamster ovary (CHO) cells were grown in Dulbecco's modified Eagle's medium supplemented with 2 millimolar (mM) glutamine, 10% fetal calf serum, and antibiotics. In brief, 40,000 cells seeded on poly-L-lysine-coated glass coverslips (13 millimeter (mm) in diameter) in a 24-multiwell plate were transfected with 0.5 microgram (μg) pEGFP-SK4/0.5 μg mutant SK4, 1.2 μg dsRed-PIP4,5-kinase or with 1 μg SK1/SK2/SK3 together with pIRES-CD8 (0.3 μg) as a marker for transfection. Transfection was performed using TransIT-LT1 Transfection Reagent (Mirus Bio) according to the manufacturer's protocol. For electrophysiology, transfected cells were visualized approximately 40 hours after transfection with a Zeiss Axiovert 35 inverted florescence microscope.
Whole-cell patch-clamp recording: Voltage-clamp recordings were performed using the whole-cell configuration of the patch-clamp technique. Signals were amplified using an […] patch-clamp amplifier (Molecular Devices), sampled at 5 kHz and filtered at 2.4 kHz via a four pole Bessel low pass filter. Data were acquired using pClamp™ 10.5 software in conjunction with an Axon™ DigiData® 1440A interface (Molecular Devices). The patch pipettes were pulled from borosilicate glass (Harvard Apparatus) with a resistance of 3-5 megaohms (MΩ). The intracellular pipette solution contained 130 mM KCl, 5 mM EGTA, 10 mM HEPES, pH 7.3 (adjusted with KOH), and CaCl2 calculated for a final concentration of 1 μM free-Ca^2+, by MAXCHELATOR (WEBMAXC STANDARD) software, with sucrose added to adjust osmolarity to 290 mosM. The external solution (310 mosM) contained 140 mM NaCl, 4 mM KCl, 1.8 mM CaCl2, 1.2 mM MgCl2, 11 mM glucose, and 5.5 mM HEPES adjusted with NaOH to pH 7.3. CHO cells were held at −90 millivolt (mV) and SK4 K^+ currents were activated using a voltage ramp protocol from −100 mV to +60 mV for 150 milliseconds. Electrophysiological data analysis was performed using the Clampfit program (pClamp™ 10.5; Molecular Devices).
Some of the compounds were tested by comparing trace of WT SK4 channel currents in the absence and presence of 20 μM of the tested compound.

[4] = target: T2, human SK4; assay: as above; format: cell-based; conditions: 10 μM
[5] = test system: isolated rat hearts; assay: Langendorff perfused isolated rat hearts: electrophysiology and hemodynamics; conditions: 10 μM
Method: (§1) Animals: Adult male Sprague-Dawley rats (n=56, 200-250 grams) and Guinea pigs (n=19, 400-700 grams) obtained from Envigo Laboratories (Jerusalem, Israel) were bred and grown in Ben-Gurion University of the Negev, Israel. Experiments in rats and guinea pigs were approved by the institutional ethics committee of Ben-Gurion University of the Negev, Israel (Protocol No. IL-24-05-2020(D) and were carried out in strict accordance with the Guide for the Care and Use of Laboratory Animals of the National Institutes of Health. The animals were kept under standardized conditions: 12:12 light: dark cycles at 20-24° C. and 30-70% relative humidity.
(§2) Perfused isolated hearts—Langendorff method: The isolated heart experiment setup was performed as described in Etzion et al., Am J Physiol Heart Circ Physiol (2008) 295, H1460-1469; and Mor et al., J Pharmacol Exp Ther (2013) 344, 59-67.]. Briefly, each animal was anesthetized with 2% isoflurane and an intraperitoneal (IP) injection of pentobarbital (60 mg/kg), followed by IP injection of Heparin (1000 U/kg). The heart was rapidly excised and placed into ice-cold Tyrode's buffer solution (consisted of 140 mM NaCl, 5.4 mM KCl, 0.5 mM MgCl2, 2.5 mM CaCl2, 0.39 mM NaH2PO4, 10 mM HEPES and 11 mM glucose, and titrated to pH 7.4 with NaOH). The aorta was cannulated and connected to a pre-heated (37° C.) and oxygenated perfusion system with Tyrode's solution while perfusion pressure was maintained at about 70 mmHg throughout the experiment. Prior to the experiment, the heart was left in Tyrode's solution to stabilize for 20 minutes for hemodynamic measurements, the left atrial appendage was excised, and a collapsed latex balloon was inserted into the left ventricle (LV) through the mitral valve. Once positioned, the balloon was filled with double distilled water reaching an end-diastolic pressure of 10-15 mmHg. Coronary perfusion pressure and LV pressure were recorded by a pressure amplifier (ETH-256C amplifier and B-100 probes, iWorx, NH, USA). Electrophysiological signals were recorded from the high right atrium (HRA) via a miniature quadripolar hook electrode (for simultaneous pacing and recording) and from the LV via a bipolar hook electrode. Electrical signals were filtered (1-2 kHz) and recorded by two voltage amplifiers (Model 3000, A-M Systems, Carlsberg, WA, USA). Signals were interfaced with a PC using an A/D converter (PCI-6024E, National Instruments, Austin TX, USA) and a custom-designed program developed with LabVIEW programing language (National Instruments, Austin, TX, USA) to control signal acquisition, data saving and off-line analysis. Measured physiological parameters during the experiment included perfusion flow (ml/minute) as a marker for coronary perfusion pressure, LV developed pressure, dP/dt±(representing the rate of rise of left ventricular pressure during isovolumetric contraction as a marker for LV contractility), heart rate, PR, and RR intervals. Tram-34 and BA6b9 were applied for a 20-minutes incubation period and physiological parameters were recorded.
(§3) Effective refractory period measurements: Using both custom-made quadripolar electrode inserted on the HRA and two bipolar electrodes (recording and pacing) on the LV, allowed measurement of the effective refractory period (ERP) at the atrial level (atrial effective refractory period, AERP), atrioventricular level (AVERP), and ventricular level (VERP). For ERP measurement, a programmed S1S2 stimulation protocol was performed using double diastolic threshold intensity. The protocol consisted of ten S1-S2 intervals of 150 milliseconds (ms) followed by an S1-S2 interval that was reduced by 1 ms each time, until pacing capture failed three consecutive times. AERP, AVERP, and VERP were measured and recorded prior and after exposure to the used inhibitor, either Tram-34 or BA6b9.

[6] = test system: isolated guinea pig hearts; assay: Langendorff perfused isolated guinea pig hearts; conditions: 10 μM
Method: as §1, §2, §3

Compound: CCCCCCCC(=O)OC[C@H](COP(=O)(O)O[C@@H]1[C@H](O)[C@H](O)[C@@H](OP(=O)(O)O)[C@H](OP(=O)(O)O)[C@H]1O)OC(=O)CCCCCCC [diC8-PIP2, dioctanoyl, phosphatidylinositol 4,5 bisphosphate, reference compound]
EC50 ([1]; internal application after PIP2 depletion by PLL, read-out: EC50 of activation of WT SK4 channels): 154 nM
EC50 [2]: 1900 nM

Compound: poly-L-lysine hydrochloride [PLL, reference compound]
decrease (inhibition) of SK4 current ([1]; 50 μg/ml internal application, 1 minute): 68%

Compound: Clc1ccccc1C(c1ccccc1)(c1ccccc1)n1cccn1 [Tram-34, 1-[(2-chlorophenyl)diphenylmethyl]-1H-pyrazole, reference compound]
coronary flow (perfusion flow velocity) [5]: significantly lowered
left ventricular filling pressure (developed pressure) [5]: did not affect
maximal pressure change in left ventricular contractility (dP/dt max) [5]: reduces both parameters
minimal pressure change in left ventricular contractility (dP/dt min) [5]: reduces both parameters
AERP (effect) [6]: significantly prolonged
AVERP (effect) [6]: significantly prolonged
action potential activation current (atrial and ventricular pacing thresholds) [6]: Neither Tram-34 nor BA6b9 affected
coronary flow (perfusion flow velocity) [6]: no effect

Now from value to compound, other results behind:

activation (increase) of WT SK4 current [4]: 42%
activation of SK4 channel (fold) ([4]; representative trace): about 1.4 fold
Compound: O=c1[nH]c2cc(Cl)c(Cl)cc2[nH]1 [BA40, 5,6-dichloro-1,3-dihydro-2H-benzo[d]imidazol-2-one]
SK4 K+ channel modulating activity [3]: activated; also recorded: activation; also recorded: Activator

activation (increase) of WT SK4 current [4]: 28%
Compound: O=c1[nH]c2ccc(Br)cc2[nH]1 [BA100, 5-bromo-1,3-dihydro-2H-benzo[d]imidazol-2-one]
SK4 K+ channel modulating activity [3]: activated; also recorded: activation; also recorded: Activator
